Results as given in article PMC11726445 (RSC Advances, 2025).
In brackets after ≈: the same amount, converted by molar mass.

How the values were obtained:
Type in all cases: cell-based
Klebsiella pneumonia [1] = assay: MIC, broth microdilution; details: Klebsiella pneumoniae
Klebsiella pneumonia [2] = assay: Biofilm inhibition, crystal violet method
Pseudomonas aeruginosa [3] = assay: MIC, broth microdilution
Bacillus subtilis [4] = assay: Bacterial lipid peroxidation; details: treated at the MIC level
Staphylococcus aureus [5] = assay: Bacterial lipid peroxidation; details: treated at the MIC level
Bacillus subtilis [6] = assay: MIC, broth microdilution
Staphylococcus aureus [7] = assay: Biofilm inhibition, crystal violet method
Bacillus subtilis [8] = assay: Biofilm inhibition, crystal violet method
Staphylococcus aureus [9] = assay: MIC, broth microdilution
Salmonella typhimurium [10] = assay: Biofilm inhibition, crystal violet method
Klebsiella pneumonia [11] = assay: Bacterial lipid peroxidation; details: treated at the MIC level
Candida albicans = assay: MIC, broth microdilution
Pseudomonas aeruginosa [12] = assay: Biofilm inhibition, crystal violet method
Pseudomonas aeruginosa [13] = assay: Bacterial lipid peroxidation; details: treated at the MIC level
Salmonella typhimurium [14] = assay: Bacterial lipid peroxidation; details: treated at the MIC level

| SMILES | MIC (Klebsiella pneumonia [1]) | MIC (Pseudomonas aeruginosa [3]) | MIC (Bacillus subtilis [6]) | MIC (Staphylococcus aureus [9]) | MIC (Candida albicans) | Efficacy (MIC) relative to Sulfadiazine (Staphylococcus aureus [9]) | Biofilm inhibition (Klebsiella pneumonia [2]) | Lipid peroxidation efficiency (Bacillus subtilis [4]) | Lipid peroxidation efficiency (Staphylococcus aureus [5]) | Biofilm inhibition (Staphylococcus aureus [7]) | Biofilm inhibition (Bacillus subtilis [8]) | Biofilm inhibition (Salmonella typhimurium [10]) | Lipid peroxidation efficiency (Klebsiella pneumonia [11]) | Biofilm inhibition (Pseudomonas aeruginosa [12]) | Lipid peroxidation efficiency (Pseudomonas aeruginosa [13]) | Lipid peroxidation efficiency (Salmonella typhimurium [14]) |
| --- | --- | --- | --- | --- | --- | --- | --- | --- | --- | --- | --- | --- | --- | --- | --- | --- |
| COc1ccc(C=NNC(=O)CSc2nc3c(C)cccc3c(=O)n2-c2ccccc2)cc1OS(C)(=O)=O [5g, 2-Methoxy-5-((2-(2-((8-methyl-4-oxo-3-phenyl-3,4-dihydroquinazolin-2-yl)thio)-acetyl)hydrazono)methyl)phenyl methanesulfonate] | 99 ± 5.02 µg/mL | 96 ± 4.83 µg/mL | 48 ± 2.25 µg/mL | 11.3 ± 2.38 µg/mL | 9 ± 3.17 µg/mL | 2 fold | 32.8 ± 1.92% | 219.7 ± 2.71% | 118.4 ± 2.26% | 34.7 ± 4.02% | 45.1 ± 2.72% | 33.9 ± 2.94% | 285.2 ± 1.44% | 20.1 ± 2.32% | 175.2 ± 3.29% | 210.4 ± 4.66% |
| O=C(O)c1cn(C2CC2)c2cc(N3CCNCC3)c(F)cc2c1=O [Ciprofloxacin, reference compound] |  |  |  |  |  |  | 40.8 ± 3.88% | 417.7 ± 2.83% | 319.8 ± 3.26% | 30.9 ± 4.52% | 49.2 ± 1.16% | 58.3 ± 4.02% | 327.4 ± 4.42% | 45.2 ± 1.18% | 346.3 ± 2.62% | 294.8 ± 1.99% |

The remaining compounds from weak to strong by MIC (Klebsiella pneumonia [1]), led by results:

| MIC (Klebsiella pneumonia [1]) | MIC (Pseudomonas aeruginosa [3]) | MIC (Bacillus subtilis [6]) | MIC (Staphylococcus aureus [9]) | MIC (Candida albicans) | Efficacy (MIC) relative to Sulfadiazine (Staphylococcus aureus [9]) | SMILES | Biofilm inhibition (Klebsiella pneumonia [2]) | Lipid peroxidation efficiency (Bacillus subtilis [4]) | Lipid peroxidation efficiency (Staphylococcus aureus [5]) | Biofilm inhibition (Staphylococcus aureus [7]) | Biofilm inhibition (Bacillus subtilis [8]) | Biofilm inhibition (Salmonella typhimurium [10]) | Lipid peroxidation efficiency (Klebsiella pneumonia [11]) | Biofilm inhibition (Pseudomonas aeruginosa [12]) | Lipid peroxidation efficiency (Pseudomonas aeruginosa [13]) | Lipid peroxidation efficiency (Salmonella typhimurium [14]) |
| --- | --- | --- | --- | --- | --- | --- | --- | --- | --- | --- | --- | --- | --- | --- | --- | --- |
| 47 ± 3.18 µg/mL (≈ 188 µM) | 70 ± 4.99 µg/mL (≈ 280 µM) | 46 ± 4.18 µg/mL (≈ 184 µM) | 24 ± 3.92 µg/mL (≈ 95.9 µM) | 72 ± 3.44 µg/mL (≈ 288 µM) |  | Nc1ccc(S(=O)(=O)Nc2ncccn2)cc1 [Sulfadiazine, reference compound] |  |  |  |  |  |  |  |  |  |  |
| 44 ± 1.88 µg/mL | 97 ± 3.88 µg/mL | 49 ± 2.77 µg/mL | 52 ± 0.28 µg/mL | 10 ± 2.55 µg/mL |  | CCS(=O)(=O)Oc1ccc(C=NNC(=O)CSc2nc3ccc(Cl)cc3c(=O)n2-c2ccccc2)cc1 [5k, 4-((2-(2-((6-Chloro-4-oxo-3-phenyl-3,4-dihydroquinazolin-2-yl)thio)acetyl)-hydrazono)methyl)phenyl ethanesulfonate] | 53.1 ± 2.12% | 377.6 ± 3.44% | 202.2 ± 2.17% | 42.9 ± 2.62% | 63.7 ± 0.92% | 61.9 ± 1.72% | 295.2 ± 1.89% | 38.7 ± 3.66% | 181.3 ± 6.06% | 278.3 ± 5.07% |
| 22 ± 4.72 µg/mL (≈ 37.9 µM) | 45 ± 6.11 µg/mL (≈ 77.5 µM) | 23 ± 2.21 µg/mL (≈ 39.6 µM) | 50 ± 0.88 µg/mL (≈ 86.1 µM) | 48 ± 4.18 µg/mL (≈ 82.7 µM) |  | CCCS(=O)(=O)Oc1ccc(C=NNC(=O)CSc2nc3c(C)cccc3c(=O)n2-c2ccccc2)cc1OC [5f, 2-Methoxy-4-((2-(2-((8-methyl-4-oxo-3-phenyl-3,4-dihydroquinazolin-2-yl)thio)-acetyl)hydrazono)methyl)phenyl propane-1-sulfonate] | 59.6 ± 2.22% | 212.5 ± 5.52% | 151.2 ± 1.92% | 45.1 ± 1.62% | 56.4 ± 3.12% | 37.4 ± 1.82% | 230.4 ± 2.12% | 34.8 ± 4.07% | 140.4 ± 5.02% | 273.1 ± 4.33% |
